The subject of one data set is CEM. Briefly: Cell growth inhibition assay, CEM. The class given is cell-based. The settings on record: Homo sapiens, CCRF-CEM, acute lymphoblastic leukemia, 72 h viability assay, Alamar Blue, mean of 3 ± SEM, read-out: IC50 (inhibition of cellular proliferation). As to the method:
(§1) Cells were plated at a density of between 500 to 5000 cells per well for adherent cell lines depending on doubling time, and 15,000 cells per well for lymphoblastic leukemia cell lines, in a 96-well plate in 200 μl of growth media. Plates were incubated overnight at 37 °C before adding the inhibitors. Inhibitors were serially diluted from the stock solutions in complete medium and added to the cells. Incubation in the presence of inhibitors was continued for […]. Cell viability was assessed by the AlamarBlue (Invitrogen) or CellTiterBlue/Glo (Promega) method according to manufacturer’s instructions. The curve fits and IC50 values were generated in PRISM (GraphPad, San Diego, CA).
Parental human lymphoblastic leukemia cells (CEM) and their drug resistant derivatives (dEpoB30 and dEpoB300) were cultured in the presence of increasing amounts of WEHI-7326, paclitaxel or epothilone B. Cell survival was determined as described in Experimental Procedures. Shown are mean of 3 experiments +/- SEM. Dose response curves were fitted in PRISM using non-linear regression (4 parameter logistic) to calculate IC50 values.

A short description of data set [1]: Measured physicochemical and solubility data. The text has this: a Measured physicochemical and solubility data for WEHI-7326. […] Microsomal-predicted EH values are included.
The subject of data set [2] is MDA-MB-231, H1437, LoVo and PC3 cells. Briefly: Anti-proliferative activity in a panel of cancer cell lines (CellTiterGlo, 72 h). It is filed as cell-based, human. The procedure: as §1
For the next data set, the system named is SW480. Briefly: Cell cycle analysis (G2/M arrest, PI staining, flow cytometry), SW480. The class given is cell-based, human. The procedure: Fig. 2 Antimitotic activity of WEHI-7326: cancer cell lines and effects on tubulin polymerization. a Dose-dependent antimitotic activity of WEHI-7326, nocodazol and taxol in tumor cell lines SW480 (colorectal) and MDA-MB-231 (breast). Data are presented as percentage of cells in G2/M after overnight incubation with increasing concentrations of inhibitors and PI staining followed by flow cytometry analysis. Mean average of 3 independent experiments ±SEM. b EC50 values (nM) for G2/M arrest on SW480 and MDA-MB-231 cell lines, given as mean average of 3 independent experiments ±SEM. c Western blot analysis of mitotic arrest in SW480 and MDA-MB-231 cells treated with EC50 concentrations of WEHI-7326 or Paclitaxel as marked by expression of phosho-S10 Histone H3 (p-HH3 S10), at different timepoints post treatment. Expression of β-actin provided as loading control. d Cell cycle analysis of LIM1899 cells 72 h post treatment with increasing concentrations of WEHI-7326 as measured by PI staining for DNA content followed by flow cytometry analysis. Sub-G1 represents apoptotic fractions and >4 N cell fractions of mitotic slippage. e Immunofluorescence confocal microscopy of tubulin polymerization in SW480 cells treated by various agents. Cells were incubated for 24 h with control (0.1% DMSO), nocodazole (1 μM), paclitaxel (1 μM), myoseverin B (1 μM) or WEHI-7326 (1 μM). Cells were fixed and stained with β-tubulin antibody (green) and DAPI (DNA; blue) and phalloidin (actin, red). Shown are single confocal sections and enlarged areas (3x) to highlight changes in microtubule network; scale bar = 20 μm. Representative images from 2 independent experiments. f Cellular tubulin polymerization assay in cells: SW480 cells were incubated overnight with paclitaxel, myoseverin B or WEHI-7326, then processed to detect fractions of polymerized (P) and soluble (S) tubulin by western blot analysis. Representative blot of 3 independent experiments. g Tubulin polymerization was assessed in vitro over time using a fluorescence-based tubulin polymerization assay (BK011P). Tubulin was incubated with control (DMSO), paclitaxel (3 μM), nocodazole (15 μM) and WEHI-7326 at indicated concentrations (in DMSO). Polymerization was measured by excitation at 360 nm and emission at 420 nm. Representative graph of 3 independent experiments performed in duplicates. […]
Cells in log growth were supplemented with fresh medium with either vehicle (control) or compound at the stated final concentrations. […] After 1 h incubation at room temperature in the dark, cells were analyzed on a FACScan (Becton and Dickinson) in CellQuest. The percentage of cells in each phase of the cell cycle was determined using ModFit software (Verity, http://www.vsh.com). Early and late apoptotic responses elicited by WEHI-7326 were assessed using Dead Cell Apoptosis Kit (ThermoFisher Scientific) with Annexin V FITC and PI following manufacturer’s instructions. Cells were incubated 24 h with 6-point, 4-fold titration of WEHI-7326, washed twice with cold 1X PBS, resuspended in 1X Annexin Binding Buffer, incubated with FITC Annexin V and PI for 15 mins at RT in the dark and subsequently analyzed by flow cytometry.

The structures appear in SMILES notation.

With `COc1ccc(CNc2nc(NCc3ccc(CN)cc3)nc(NN3CC(=O)NC3=O)n2)cc1` [WEHI-7326], the IC50 with CEM was 3.99 ± 0.04 nM. Moreover, in data set [1], the Lipophilicity result is “very low”. In addition, the “Solubility in common dosing vehicles” value in data set [1] (5% [w/v] glucose, 0.9% [w/v] saline and isotonic acetate buffer pH 5) is on record as “soluble”. In addition, the “Stability in dosing vehicles” value in data set [1] (storage in common dosing vehicles) was “negligible degradation”. For the same compound, the “Anti-proliferative activity relative to myoseverin B” value in data set [2] is reported as “over 10 fold”. Moreover, the EC50 in the data set on SW480 (Homo sapiens, SW480, read-out: EC50 (G2/M arrest)) turned out to be 98 ± 10 nM. Moreover, the “G2/M cell cycle arrest” value in the data set on SW480 (SW480) is “strong G2/M cell cycle arrest”.

The values are drawn from PMC7955127, “Preclinical small molecule WEHI-7326 overcomes drug resistance and elicits response in patient-derived xenograft models of human treatment-refractory tumors” (Cell Death & Disease, 2021).
